{"source": "patent US20120130146A1", "about": "“CONTINUOUS ADMINISTRATION OF CILENGITIDE IN CANCER TREATMENTS” (Merck Patent GmbH, priority 2009, published 2012)", "key": {"various brain tumors": {"system": "various brain tumors", "details": "cited from earlier work"}, "[1]": {"system": "U251 human glioblastoma cells", "test": "Rat orthotopic glioblastoma model radiotherapy, Cilengitide scheduling experiments", "format": "in vivo", "details": "t-4 and t-8 h groups", "experimental": "NIH mu nude rats are anaesthetized, restrained, and injected intracerebrally 1 mm retro orbitally, 3 mm to the right of the bregma and at a depth of 2.5 mm with 5×10E5 U251 human glioblastoma cells suspended in 10 ul of culture medium, using a #2701 Hamilton syringe fitted with a 26 gauge needle, essentially as previously described (Engebraaten et al., 1999). After 14 days, cilengitide (4 mg/kg) is given as an intraperitoneal bolus in PBS, at various time (8 h, 4 h, 2 h, 1 h) prior to a single treatment with single, collimated, dorsal-ventral beam of 6 MV x-rays, so that 95-100% of the central axis dose of 25 Gy hit the tumor volume (Kim et al., 1999). Each of the 7 subsequent days the animals also received an identical i.p. bolus of cilengitide. The animals are maintained under ad libitum food and drink until they become moribund, or are sampled for tissue analysis (in the t-4 and t-8 h groups, where the animals are healthy past 230 days post tumor injection). A Kaplan-Meier survival curve is calculated and plotted (FIG. 1) from the raw data (Table 1). All animals in the RT monotherapy group died by 120 d."}, "[2]": {"system": "recurrent glioblastoma (GBM)", "test": "Phase IIa trial of cilengitide single agent therapy in patients with recurrent glioblastoma", "format": "in vivo, human", "experimental": "Background: The present phase IIa study was designed to evaluate the safety, toxicity, and clinical activity of the cyclic RGD pentapeptide cilengitide((=cyclo-(Arg-Gly-Asp-DPhe-NMe-Val)), an inhibitor of integrins avβ3 and avβ5, as a single agent at doses of 500 and 2000 mg in patients (pts) with recurrent glioblastoma (GBM).\nMethods: in this multicenter, open-label, randomized, uncontrolled study, pts with GBM and measurable disease that had relapsed after previous therapy with temozolomide and radiotherapy were randomized to receive cilengitide at doses of either 500 mg or 2000 mg i.v., 2×/week, until progression. Histopathology diagnosis and MRI imaging were subject to independent blinded review. The primary endpoint was Progression Free Survival (PFS) at 6 months (mths). Secondary endpoints included response, survival, time to disease progression, safety, tolerability and pharmacokinetics."}, "[3]": {"system": "human umbilical vein endothelial cells (HUVECs)", "test": "Growth (Alamar Blue) assay on HUVEC, Example 5", "format": "cell-based", "details": "agent alone", "description": "The methods established and described in detail previously (Goodman and Hahn a; b) were used to measure the effect of combinations of integrin inhibitors and chemotherapeutics on carcinoma cell and human endothelial cell proliferation.\nPoints were run in duplicate or in triplicate. Reagent blanks, containing media plus Alamar Blue without cells, were run on each plate. Blank values were subtracted from test values and were routinely 5-10% of uninhibited control values.\n5.5 Methods of Evaluation and Statistics Chemotherapeutic agents and αv-integrin blockers were serially diluted alone or together (combination therapy). In some assays the chemotherapeutic agent was serially diluted alone or in combination with of alpha-v integrin blocker. Growth inhibition curves were plotted and a shift of the combination therapy curve to lower concentrations in relation to the single agent curves was interpreted as an additional effect, produced by combination versus monotherapy.\nThe αv-integrin competitive inhibitor Cilengitide (EMD 121974) was tested alone and in combination with vinorelbine in a serum growth stimulation assay using human carcinoma cells or human umbilical vein endothelial cells (HUVECs). In these assays cells are cultured in serum, or in an endothelial growth stimulation medium (Goodman & Hahn)."}, "[4]": {"system": "advanced solid malignancy", "test": "Phase I study of continuous infusion EMD 121974 in patients with advanced solid malignancy (safety)", "format": "in vivo", "experimental": "Background: Integrins avβ3 and avβ5 are cell-surface receptors that play a significant role in angiogenesis by mediating the ligation signal that allows endothelial cells to attach to the extracellular matrix. These integrins share the binding epitope Arg-Gly-Asp (RGD). EMD is an RGD-containing cyclic pentapeptide. In clinical studies to date, EMD has been administered in an intermittent fashion. […] Methods: EMD was administered as a continuous infusion without break in 4-week cycles. Plasma samples for pharmacokinetic studies were obtained weekly in cycle 1 immediately prior to and 2 hours after infusion bag change. Results: To date 21 patients (15 male/6 female, median age 56, median Karnofsky performance status 90%) have been treated at the following dose levels: 1, 2, 4, 8, 12, 18, and 27 mg/h. […] Non-hematologic toxicities have been limited to grade<2 and include alopecia, anorexia, diarrhea, fatigue, hypokalemia, hyponatremia, hypophosphatemia, insomnia, mucositis, nail changes, nausea, and transaminase elevation. […] Pharmacokinetic analysis has been completed for patients treated at the 12 mg/h dose level and below. […] Conclusions: EMD can be safely administered as a continuous infusion at doses of up to at least 18 mg/h. No single toxicity has been consistently observed."}}, "note": "Entries after “also recorded” stand apart in the source; their conditions may differ."}
{"smiles": "CC(C)[C@H]1C(=O)N[C@@H](CCCN=C(N)N)C(=O)NCC(=O)N[C@@H](CC(=O)O)C(=O)N[C@H](Cc2ccccc2)C(=O)N1C", "note": "[Cilengitide, cyclo-(Arg-Gly-Asp-DPhe-NMeVal)]", "values": [{"measurement": "MTD in humans", "setting": "various brain tumors; human, in vivo", "result": "no known MTD"}, {"measurement": "tolerability", "setting": "various brain tumors; human, in vivo", "result": "very well tolerated"}, {"measurement": "response in GBM patients", "setting": "various brain tumors; some of the GBM patients", "result": "indication of response"}, {"measurement": "animals healthy, days post tumor injection", "setting": "[1]", "result": "> 230", "unit": "days"}, {"measurement": "median Overall Survival (mOS)", "setting": "[2]; 500 mg arm", "result": 6.5, "unit": "mths"}, {"measurement": "pts who received 12 or more cycles of therapy", "setting": "[2]; 1 cycle = 4 weeks, both dose arms", "result": 12.3, "unit": "%"}, {"measurement": "median Overall Survival (mOS)", "setting": "[2]; 2000 mg arm", "result": 9.9, "unit": "mths"}, {"measurement": "PFS rate at 6 mths", "setting": "[2]; 500 or 2000 mg i.v. 2x/week, all 81 pts", "result": 16.1, "unit": "%"}, {"measurement": "Treatment related NCI CTC grade 3 adverse events", "setting": "[2]; at 500 mg, in 1 patient each", "result": "elevated liver enzymes; also recorded: arthralgia/myalgia"}, {"measurement": "Treatment related NCI CTC grade 3 adverse events", "setting": "[2]; at 2000 mg, in 1 patient", "result": "weight increase/edema"}, {"measurement": "pts still progression-free and on treatment", "setting": "[2]; at the time the abstract was issued", "result": 7.4, "unit": "%"}, {"measurement": "grade 4 therapy related AEs", "setting": "[2]; both dose arms", "result": "No grade 4 therapy related AEs"}, {"measurement": "single agent activity in recurrent glioblastoma", "setting": "[2]; human, in vivo", "result": "advantagous single agent activity"}, {"measurement": "cerebral hemorrhage", "setting": "[2]; possibly related either to the drug or to the disease", "result": "One CTC grade 2 cerebral hemorrhage"}, {"measurement": "tolerability", "setting": "[2]; single agent therapy at two dose levels", "result": "tolerated well"}, {"measurement": "IC50", "setting": "[3]", "result": 700, "unit": "nM"}, {"measurement": "dose that can be safely administered as a continuous infusion", "setting": "[4]; human, in vivo", "result": "at least 18 mg/h"}, {"measurement": "patient death", "setting": "[4]; one patient treated at 27 mg/h, after two weeks of therapy", "result": "unobserved death of unknown cause"}]}
